Measured values as given in ChEMBL document CHEMBL5291721, “A preclinical secondary pharmacology resource illuminates target-adverse drug reaction associations of marketed drugs” (Nat Commun, 2023).

Key:
[1] = molecular target: Cannabinoid receptor 1 (Homo sapiens, UniProt P21554); assay type: functional, cell-based
[2] = molecular target: Kappa-type opioid receptor (Homo sapiens, UniProt P41145)
[3] = molecular target: T1, Muscarinic acetylcholine receptor M1 (Homo sapiens, UniProt P11229); assay type: functional
T1 sequence (P11229 whole entry): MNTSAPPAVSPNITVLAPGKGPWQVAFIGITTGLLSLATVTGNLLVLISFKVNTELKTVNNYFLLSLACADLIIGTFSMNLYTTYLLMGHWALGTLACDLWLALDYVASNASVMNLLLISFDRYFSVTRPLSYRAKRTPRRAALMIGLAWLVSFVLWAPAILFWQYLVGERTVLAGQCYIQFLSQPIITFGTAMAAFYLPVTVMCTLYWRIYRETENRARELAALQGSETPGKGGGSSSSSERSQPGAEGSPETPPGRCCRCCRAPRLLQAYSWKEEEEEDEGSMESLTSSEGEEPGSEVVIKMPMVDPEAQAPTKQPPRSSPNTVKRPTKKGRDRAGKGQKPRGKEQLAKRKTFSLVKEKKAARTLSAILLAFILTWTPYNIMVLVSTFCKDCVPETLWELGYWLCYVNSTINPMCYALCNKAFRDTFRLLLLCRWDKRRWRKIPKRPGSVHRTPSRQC

[4] = molecular target: Mu-type opioid receptor (Homo sapiens, UniProt P35372); test: biochemical; assay type: functional
[5] = molecular target: T2, 5-hydroxytryptamine receptor 3A (Homo sapiens, UniProt P46098); assay type: functional
T2 sequence (P46098 whole entry): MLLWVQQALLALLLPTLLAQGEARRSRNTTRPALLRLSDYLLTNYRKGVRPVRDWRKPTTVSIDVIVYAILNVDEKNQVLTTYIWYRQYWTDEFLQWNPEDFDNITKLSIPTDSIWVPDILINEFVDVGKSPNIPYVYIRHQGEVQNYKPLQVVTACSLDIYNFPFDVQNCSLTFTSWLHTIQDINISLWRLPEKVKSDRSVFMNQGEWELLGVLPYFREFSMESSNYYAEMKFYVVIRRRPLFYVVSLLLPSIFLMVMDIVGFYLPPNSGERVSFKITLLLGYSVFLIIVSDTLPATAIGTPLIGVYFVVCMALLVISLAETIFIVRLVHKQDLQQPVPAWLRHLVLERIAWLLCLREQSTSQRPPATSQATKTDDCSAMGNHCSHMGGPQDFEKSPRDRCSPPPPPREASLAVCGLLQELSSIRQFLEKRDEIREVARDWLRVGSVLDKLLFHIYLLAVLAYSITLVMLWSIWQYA

[6] = molecular target: T3, 5-hydroxytryptamine receptor 2C (Homo sapiens, UniProt P28335)
T3 sequence (P28335 whole entry): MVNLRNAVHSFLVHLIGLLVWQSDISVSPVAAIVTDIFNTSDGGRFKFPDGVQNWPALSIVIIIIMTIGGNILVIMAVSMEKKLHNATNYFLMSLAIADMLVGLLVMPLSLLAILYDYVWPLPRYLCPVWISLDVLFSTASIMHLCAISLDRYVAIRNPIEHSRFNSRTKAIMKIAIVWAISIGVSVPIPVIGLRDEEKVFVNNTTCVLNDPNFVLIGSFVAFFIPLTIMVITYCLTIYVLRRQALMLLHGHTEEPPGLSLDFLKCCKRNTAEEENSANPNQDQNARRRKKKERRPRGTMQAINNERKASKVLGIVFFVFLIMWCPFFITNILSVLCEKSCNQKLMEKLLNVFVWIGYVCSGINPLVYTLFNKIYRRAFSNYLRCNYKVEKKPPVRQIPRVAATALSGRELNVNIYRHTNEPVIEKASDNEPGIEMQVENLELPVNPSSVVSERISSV

[7] = molecular target: T4, Equilibrative nucleoside transporter 1 (Homo sapiens, UniProt Q99808)
T4 sequence (Q99808 whole entry): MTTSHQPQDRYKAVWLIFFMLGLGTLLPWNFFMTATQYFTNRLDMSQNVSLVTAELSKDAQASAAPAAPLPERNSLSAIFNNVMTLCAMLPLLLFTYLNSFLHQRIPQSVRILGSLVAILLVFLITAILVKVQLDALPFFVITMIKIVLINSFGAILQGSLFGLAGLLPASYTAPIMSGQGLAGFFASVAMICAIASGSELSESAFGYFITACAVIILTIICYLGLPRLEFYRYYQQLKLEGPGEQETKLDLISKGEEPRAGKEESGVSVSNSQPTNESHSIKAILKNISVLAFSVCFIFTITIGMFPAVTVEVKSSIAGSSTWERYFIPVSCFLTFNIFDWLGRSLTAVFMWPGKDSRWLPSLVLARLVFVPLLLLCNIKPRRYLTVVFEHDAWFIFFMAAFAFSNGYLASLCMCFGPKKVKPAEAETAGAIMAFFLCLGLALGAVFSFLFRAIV

[8] = molecular target: Vasopressin V1a receptor (Homo sapiens, UniProt P37288)
[9] = molecular target: Adenosine receptor A2a (Homo sapiens, UniProt P29274)
[10] = molecular target: Beta-1 adrenergic receptor (Homo sapiens, UniProt P08588); assay type: functional
[11] = molecular target: Growth hormone secretagogue receptor type 1 (Homo sapiens, UniProt Q92847)
Also: assay procedure not described here.

Chain of Mu-type opioid receptor (P35372 whole entry): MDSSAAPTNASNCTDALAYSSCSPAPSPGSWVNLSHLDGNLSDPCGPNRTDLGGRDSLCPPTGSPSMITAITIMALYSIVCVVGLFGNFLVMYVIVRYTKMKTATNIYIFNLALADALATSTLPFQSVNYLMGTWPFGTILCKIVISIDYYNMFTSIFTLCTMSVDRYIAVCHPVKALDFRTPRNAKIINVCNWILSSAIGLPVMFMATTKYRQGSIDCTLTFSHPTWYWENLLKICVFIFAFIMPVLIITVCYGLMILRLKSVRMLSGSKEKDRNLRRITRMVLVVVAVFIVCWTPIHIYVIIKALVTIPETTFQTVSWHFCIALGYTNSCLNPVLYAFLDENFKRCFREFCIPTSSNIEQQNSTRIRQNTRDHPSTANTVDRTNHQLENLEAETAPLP
Chain of Kappa-type opioid receptor (P41145 whole entry): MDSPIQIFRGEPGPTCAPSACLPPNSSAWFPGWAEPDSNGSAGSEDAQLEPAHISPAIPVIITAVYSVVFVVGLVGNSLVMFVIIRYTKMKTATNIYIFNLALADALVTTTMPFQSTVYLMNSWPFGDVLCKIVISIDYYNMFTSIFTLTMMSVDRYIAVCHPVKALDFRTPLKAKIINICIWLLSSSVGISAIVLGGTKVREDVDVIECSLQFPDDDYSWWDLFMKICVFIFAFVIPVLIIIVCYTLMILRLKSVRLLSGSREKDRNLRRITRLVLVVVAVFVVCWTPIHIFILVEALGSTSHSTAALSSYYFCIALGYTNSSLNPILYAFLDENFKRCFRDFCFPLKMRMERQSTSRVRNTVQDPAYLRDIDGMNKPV
Chain of Cannabinoid receptor 1 (P21554 whole entry): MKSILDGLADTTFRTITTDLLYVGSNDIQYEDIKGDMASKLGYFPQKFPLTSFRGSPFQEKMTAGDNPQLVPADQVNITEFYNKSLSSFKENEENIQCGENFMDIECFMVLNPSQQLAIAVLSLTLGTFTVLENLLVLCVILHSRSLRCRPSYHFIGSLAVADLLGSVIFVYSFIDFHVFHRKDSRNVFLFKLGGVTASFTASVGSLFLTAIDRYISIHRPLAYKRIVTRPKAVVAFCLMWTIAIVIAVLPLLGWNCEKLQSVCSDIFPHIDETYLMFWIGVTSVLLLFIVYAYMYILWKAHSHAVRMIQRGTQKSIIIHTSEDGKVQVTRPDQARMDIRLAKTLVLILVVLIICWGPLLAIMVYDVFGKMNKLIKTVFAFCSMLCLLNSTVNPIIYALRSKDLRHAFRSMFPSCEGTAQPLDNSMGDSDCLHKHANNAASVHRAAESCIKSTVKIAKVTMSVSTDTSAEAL
Chain of Growth hormone secretagogue receptor type 1 (Q92847 whole entry): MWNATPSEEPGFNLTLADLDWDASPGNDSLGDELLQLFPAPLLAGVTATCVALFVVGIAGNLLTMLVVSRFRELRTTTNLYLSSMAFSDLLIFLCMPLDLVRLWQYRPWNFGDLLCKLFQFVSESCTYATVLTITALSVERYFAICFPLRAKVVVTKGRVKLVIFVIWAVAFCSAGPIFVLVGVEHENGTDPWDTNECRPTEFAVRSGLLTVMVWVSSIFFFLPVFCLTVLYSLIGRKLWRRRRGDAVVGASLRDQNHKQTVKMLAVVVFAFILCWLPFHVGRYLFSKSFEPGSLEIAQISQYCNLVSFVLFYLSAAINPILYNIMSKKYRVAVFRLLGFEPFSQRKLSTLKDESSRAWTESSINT
Chain of Adenosine receptor A2a (P29274 whole entry): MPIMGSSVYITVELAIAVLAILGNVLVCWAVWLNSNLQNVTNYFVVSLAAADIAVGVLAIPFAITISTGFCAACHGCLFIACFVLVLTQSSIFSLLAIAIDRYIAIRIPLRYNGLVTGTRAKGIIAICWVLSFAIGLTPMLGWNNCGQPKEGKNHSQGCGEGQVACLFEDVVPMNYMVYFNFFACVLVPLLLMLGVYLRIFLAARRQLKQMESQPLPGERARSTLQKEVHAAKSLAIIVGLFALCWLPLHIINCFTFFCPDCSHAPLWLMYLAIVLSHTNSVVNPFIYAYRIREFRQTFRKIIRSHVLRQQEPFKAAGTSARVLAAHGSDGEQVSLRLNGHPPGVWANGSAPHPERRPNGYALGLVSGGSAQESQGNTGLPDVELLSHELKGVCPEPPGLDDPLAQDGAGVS
Chain of Vasopressin V1a receptor (P37288 whole entry): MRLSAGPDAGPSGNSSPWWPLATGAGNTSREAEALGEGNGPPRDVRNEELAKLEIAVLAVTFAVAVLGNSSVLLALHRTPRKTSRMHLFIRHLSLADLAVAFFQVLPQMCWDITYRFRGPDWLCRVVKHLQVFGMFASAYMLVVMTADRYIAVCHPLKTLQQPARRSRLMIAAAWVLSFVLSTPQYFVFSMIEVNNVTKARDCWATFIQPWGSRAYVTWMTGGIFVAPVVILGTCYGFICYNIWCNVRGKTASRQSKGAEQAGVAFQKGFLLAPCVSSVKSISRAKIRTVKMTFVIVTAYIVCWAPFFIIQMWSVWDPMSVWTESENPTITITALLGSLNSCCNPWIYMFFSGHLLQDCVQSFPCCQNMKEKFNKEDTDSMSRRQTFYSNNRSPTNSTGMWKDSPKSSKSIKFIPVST
Chain of Beta-1 adrenergic receptor (P08588 whole entry): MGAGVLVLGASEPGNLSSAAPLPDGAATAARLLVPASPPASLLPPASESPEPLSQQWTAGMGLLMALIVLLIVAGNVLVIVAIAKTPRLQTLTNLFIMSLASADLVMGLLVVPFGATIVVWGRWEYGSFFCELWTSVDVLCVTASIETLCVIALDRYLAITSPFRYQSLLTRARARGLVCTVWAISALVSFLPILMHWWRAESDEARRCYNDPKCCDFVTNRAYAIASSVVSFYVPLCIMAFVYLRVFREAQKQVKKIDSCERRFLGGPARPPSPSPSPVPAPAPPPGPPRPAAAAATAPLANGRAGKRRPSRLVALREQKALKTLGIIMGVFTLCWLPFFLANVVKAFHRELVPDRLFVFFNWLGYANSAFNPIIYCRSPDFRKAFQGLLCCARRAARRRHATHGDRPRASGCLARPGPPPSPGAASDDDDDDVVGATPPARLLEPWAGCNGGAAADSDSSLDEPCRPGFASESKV

AC50 [1] [µM] | AC50 [2] [µM] | AC50 [4] [µM] | AC50 [5] [µM] | AC50 [6] [µM] | AC50 [7] [µM] | AC50 [8] [µM] | AC50 [9] [µM] | AC50 [10] [µM] | AC50 [11] [µM] | SMILES | AC50 [3] [µM]
> 30 | > 30 | > 30 | > 30 | > 30 | > 30 | > 30 | > 30 | > 30 | > 30 | NS(=O)(=O)c1cc(-c2nnn[nH]2)c(NCc2cccs2)cc1Cl [AZOSEMIDE] | > 30
> 30 |  | > 30 | > 30 | > 30 | > 30 | > 30 | > 30 | > 30 | > 30 | C[N+](C)(C)CC(=O)O [BETAINE] | > 30
> 30 | > 30 | > 30 | > 30 | > 30 | > 30 | > 30 | > 30 | > 30 | > 30 | CCCC(=O)N1CCCN(c2nc(N)c3cc(OC)c(OC)cc3n2)CC1 [BUNAZOSIN] | > 30
> 30 | > 30 | > 30 | > 30 | > 30 | > 30 | > 30 | > 30 | > 30 | > 30 | N[C@@H](CSCC(=O)O)C(=O)O [CARBOCYSTEINE] | > 30
> 30 | 1 | > 30 | > 30 | > 30 |  | > 30 | > 30 | 23 | > 30 | CC(C(O)c1ccc(O)cc1)N1CCC(Cc2ccccc2)CC1 (centres undefined) [IFENPRODIL] | > 30
3.5 | 4.8 | > 30 | > 30 | 2.7 | > 30 | > 30 | > 30 | > 30 | 25 | CN(CCCN1c2ccccc2CCc2ccccc21)CC(=O)c1ccc(Cl)cc1 [LOFEPRAMINE] | 
> 30 | 1.99 | 2.9 | > 10 | 0.15 | > 30 | > 10 | > 30 | > 10 | > 30 | CN(C)CCCN1c2ccccc2Sc2ccccc21 [PROMAZINE] | 
> 30 | > 30 | > 30 | > 30 | > 30 | > 30 | > 30 | > 30 | > 30 | > 30 | O=P(O)(O)C(O)(Cc1cccnc1)P(=O)(O)O [RISEDRONIC ACID] | 
 | > 10 | > 30 | > 30 | > 30 | > 30 | > 30 | > 30 | > 30 | > 30 | CC(=O)N[C@H]1[C@H]([C@H](O)[C@H](O)CO)OC(C(=O)O)=C[C@@H]1N=C(N)N [ZANAMIVIR] | > 30

SMILES | AC50 [1] [µM] | AC50 [2] [µM] | AC50 [4] [µM] | AC50 [5] [µM] | AC50 [6] [µM] | AC50 [7] [µM] | AC50 [8] [µM] | AC50 [9] [µM] | AC50 [10] [µM] | AC50 [11] [µM] | AC50 [3] [µM]
CO/N=C(\C(=O)N[C@@H]1C(=O)N2C(C(=O)OCOC(=O)C(C)(C)C)=C(C)CS[C@H]12)c1csc(N)n1 | > 30 | > 30 | > 30 | > 30 | > 30 |  |  |  |  |  | > 30
O=C(Cn1ccnc1[N+](=O)[O-])NCc1ccccc1 [BENZNIDAZOLE] | > 30 | 21 | > 30 | > 30 | > 30 | > 30 | > 30 | > 30 | > 30 | > 30 | > 30
COCC1=C(C(=O)OC(C)OC(=O)OC(C)C)N2C(=O)[C@@H](NC(=O)/C(=N\OC)c3csc(N)n3)[C@H]2SC1 (some centres undefined) [CEFPODOXIME PROXETIL] | > 30 | > 30 | > 30 | > 30 | > 30 |  |  |  |  |  | > 30
NS(=O)(=O)c1cc2c(cc1Cl)NC(CC1CCCC1)NS2(=O)=O (centres undefined) [CYCLOPENTHIAZIDE] | > 30 | > 30 | > 30 | > 30 | > 30 |  |  |  |  |  | > 30
O=C(Nc1ccccc1)OCC(CN1CCCCC1)OC(=O)Nc1ccccc1 (centres undefined) [DIPERODON] | > 30 | 1.42 | 4.1 | > 10 | > 10 | > 30 | > 10 | > 30 | > 10 | > 30 | > 10
N/N=c1/cc2c(n[nH]1)CCN(C(=O)c1ccccc1)C2 [ENDRALAZINE] | > 30 | > 30 | > 30 | > 30 | > 30 |  |  |  |  |  | > 30
O=C(O)CCn1c2c(c3ccccc31)C[C@H](NS(=O)(=O)c1ccc(F)cc1)CC2 [RAMATROBAN] |  | > 10 | > 30 | > 30 | > 30 | > 30 | > 30 | > 30 | > 30 | > 30 | > 10
